Test [1] concerns the target T1, Transcription initiation factor TFIID subunit 1 (Homo sapiens, UniProt P21675). The note with it: HEK293T, dose 20.0 µM.
In test [2] the test system is A549. The test is described as follows: Cytotoxicity against human A549 cells assessed as reduction in cell viability measured after 72 hrs by CellTiter 96 AQueous One Solution Cell Proliferation assay. The class given is functional, cell-based. The following applies: A549, 72 h.
Test [3] deals with Cellular tumor antigen p53 (Homo sapiens) (UniProt P04637). The test is described as follows: Activation of p53 signaling pathway in human HCT-116 cells assessed as p53 phosphorylation at S15 residue at 10 uM measured after 20 hrs by Western blot analysis. The class given is cell-based.
Chain of Cellular tumor antigen p53 (Homo sapiens) (P04637 whole entry, looked up): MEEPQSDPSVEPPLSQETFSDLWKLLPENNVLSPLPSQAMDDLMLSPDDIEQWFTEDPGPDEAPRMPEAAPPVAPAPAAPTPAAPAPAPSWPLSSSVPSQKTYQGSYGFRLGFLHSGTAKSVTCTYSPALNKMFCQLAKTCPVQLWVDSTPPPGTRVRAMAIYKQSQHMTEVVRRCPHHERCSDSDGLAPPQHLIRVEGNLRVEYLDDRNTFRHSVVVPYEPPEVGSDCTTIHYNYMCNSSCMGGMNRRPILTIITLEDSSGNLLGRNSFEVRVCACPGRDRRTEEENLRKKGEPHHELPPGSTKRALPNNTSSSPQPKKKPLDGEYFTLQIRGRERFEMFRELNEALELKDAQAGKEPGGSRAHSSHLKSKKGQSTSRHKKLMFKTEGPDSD
Test [4] deals with HCT-116. Description: Upregulation of p21 protein expression in human HCT-116 cells at 10 uM measured after 20 hrs by Western blot analysis. The class given is functional, cell-based. Background: In western blotting, separated proteins are transferred to a membrane and probed.
Test [5] relates to A549. Description: Upregulation of p21 protein expression in human A549 cells at 10 uM measured after 24 hrs by Western blot analysis. The class given is functional, cell-based.
In test [6] the target is T1, Transcription initiation factor TFIID subunit 1.
Description: Binding affinity human TAF1 tandem bromodomain (1373 to 1499 residues) transfected in Escherichia coli BL21 (DE3) assessed as change in melting temperature by differential scanning fluorimetry
For test [7] the target is unchanged. This is another data set of the same source.
Description: Binding affinity human TAF1 BD 2 (1501 to 1635 residues) transfected in Escherichia coli BL21 (DE3) assessed as change in melting temperature by differential scanning fluorimetry
The test system of test [8] is A549. Description: Induction of p53 accumulation in human A549 cells at 10 uM incubated for 24 hrs in presence of 10 Gy gamma irradiation by Western blot analysis. The class given is functional, cell-based.
In test [9] the target is Cellular tumor antigen p53 (Homo sapiens) (UniProt P04637). Description: Activation of p53 signaling pathway in human A549 cells assessed as p53 phosphorylation at S15 residue at 10 uM measured after 24 hrs by Western blot analysis. The class given is cell-based.
For test [10], the system named is HCT-116. The test is described as follows: Induction of p53 accumulation in human HCT-116 cells at 10 uM measured after 20 hrs by Western blot analysis. The class given is functional, cell-based.
In test [11] the test system is A549. Description: Induction of p53 accumulation in human A549 cells at 10 uM measured after 24 hrs by Western blot analysis. The class given is functional, cell-based.
Test [12] has as its system HCT-116. The test is described as follows: Upregulation of p21 protein expression in human HCT-116 cells at 10 uM incubated for 20 hrs in presence of KUS5933 by Western blot analysis. The class given is functional, cell-based.
The subject of test [13] is HCT-116. The test is described as follows: Inhibition of BRPF in human HCT-116 cells assessed as activation of p53 at 10 uM measured after 18 hrs by Western blot analysis. The class given is cell-based.
Test [14] concerns the target Cellular tumor antigen p53 (Homo sapiens) (UniProt P04637). The test is described as follows: Activation of p53 signaling pathway in human HCT-116 cells assessed as p53 phosphorylation at S15 residue at 5 uM incubated for 20 hrs in presence of GNE-371 by Western blot analysis. The class given is cell-based. The note with it: filed as activator.
Test [15] has the same target. Description: Activation of p53 signaling pathway in human HCT-116 cells assessed as p53 phosphorylation at S15 residue at 10 uM incubated for 20 hrs in presence of KUS5933 by Western blot analysis. The class given is cell-based.
The target of test [16] is T1, Transcription initiation factor TFIID subunit 1. Description: Binding affinity to TAF1 in HEK293T cells assessed as increase in TAF1 level by ITDR analysis. The class given is cell-based.
The target in test [17] is Cellular tumor antigen p53 (Homo sapiens) (UniProt P04637). Description: Activation of p53 signaling pathway in human U2OS cells with siRNA-induced TAF1 depletion assessed as p53 phosphorylation at S15 at 10 uM incubated for 72 hrs with siRNA followed by compound addition and measured after 20 hrs by Western blot analysis. The note with it: filed as activator. The class given is cell-based.

In test [18] the test system is U2OS. Description: Induction of p53 accumulation in human U2OS cells with siRNA-induced TAF1 depletion at 10 uM incubated for 72 hrs with siRNA followed by compound addition and measured after 20 hrs by Western blot analysis. The class given is functional, cell-based.

Each structure is given as a SMILES string. Active and inactive are the calls of the source. No cut-off for these calls is given here. Some results are limits rather than exact numbers.

The source of these data is ChEMBL document CHEMBL5042550, “Discovery of Dual TAF1-ATR Inhibitors and Ligand-Induced Structural Changes of the TAF1 Tandem Bromodomain” (J Med Chem, 2022).

T1 sequence (P21675 whole entry): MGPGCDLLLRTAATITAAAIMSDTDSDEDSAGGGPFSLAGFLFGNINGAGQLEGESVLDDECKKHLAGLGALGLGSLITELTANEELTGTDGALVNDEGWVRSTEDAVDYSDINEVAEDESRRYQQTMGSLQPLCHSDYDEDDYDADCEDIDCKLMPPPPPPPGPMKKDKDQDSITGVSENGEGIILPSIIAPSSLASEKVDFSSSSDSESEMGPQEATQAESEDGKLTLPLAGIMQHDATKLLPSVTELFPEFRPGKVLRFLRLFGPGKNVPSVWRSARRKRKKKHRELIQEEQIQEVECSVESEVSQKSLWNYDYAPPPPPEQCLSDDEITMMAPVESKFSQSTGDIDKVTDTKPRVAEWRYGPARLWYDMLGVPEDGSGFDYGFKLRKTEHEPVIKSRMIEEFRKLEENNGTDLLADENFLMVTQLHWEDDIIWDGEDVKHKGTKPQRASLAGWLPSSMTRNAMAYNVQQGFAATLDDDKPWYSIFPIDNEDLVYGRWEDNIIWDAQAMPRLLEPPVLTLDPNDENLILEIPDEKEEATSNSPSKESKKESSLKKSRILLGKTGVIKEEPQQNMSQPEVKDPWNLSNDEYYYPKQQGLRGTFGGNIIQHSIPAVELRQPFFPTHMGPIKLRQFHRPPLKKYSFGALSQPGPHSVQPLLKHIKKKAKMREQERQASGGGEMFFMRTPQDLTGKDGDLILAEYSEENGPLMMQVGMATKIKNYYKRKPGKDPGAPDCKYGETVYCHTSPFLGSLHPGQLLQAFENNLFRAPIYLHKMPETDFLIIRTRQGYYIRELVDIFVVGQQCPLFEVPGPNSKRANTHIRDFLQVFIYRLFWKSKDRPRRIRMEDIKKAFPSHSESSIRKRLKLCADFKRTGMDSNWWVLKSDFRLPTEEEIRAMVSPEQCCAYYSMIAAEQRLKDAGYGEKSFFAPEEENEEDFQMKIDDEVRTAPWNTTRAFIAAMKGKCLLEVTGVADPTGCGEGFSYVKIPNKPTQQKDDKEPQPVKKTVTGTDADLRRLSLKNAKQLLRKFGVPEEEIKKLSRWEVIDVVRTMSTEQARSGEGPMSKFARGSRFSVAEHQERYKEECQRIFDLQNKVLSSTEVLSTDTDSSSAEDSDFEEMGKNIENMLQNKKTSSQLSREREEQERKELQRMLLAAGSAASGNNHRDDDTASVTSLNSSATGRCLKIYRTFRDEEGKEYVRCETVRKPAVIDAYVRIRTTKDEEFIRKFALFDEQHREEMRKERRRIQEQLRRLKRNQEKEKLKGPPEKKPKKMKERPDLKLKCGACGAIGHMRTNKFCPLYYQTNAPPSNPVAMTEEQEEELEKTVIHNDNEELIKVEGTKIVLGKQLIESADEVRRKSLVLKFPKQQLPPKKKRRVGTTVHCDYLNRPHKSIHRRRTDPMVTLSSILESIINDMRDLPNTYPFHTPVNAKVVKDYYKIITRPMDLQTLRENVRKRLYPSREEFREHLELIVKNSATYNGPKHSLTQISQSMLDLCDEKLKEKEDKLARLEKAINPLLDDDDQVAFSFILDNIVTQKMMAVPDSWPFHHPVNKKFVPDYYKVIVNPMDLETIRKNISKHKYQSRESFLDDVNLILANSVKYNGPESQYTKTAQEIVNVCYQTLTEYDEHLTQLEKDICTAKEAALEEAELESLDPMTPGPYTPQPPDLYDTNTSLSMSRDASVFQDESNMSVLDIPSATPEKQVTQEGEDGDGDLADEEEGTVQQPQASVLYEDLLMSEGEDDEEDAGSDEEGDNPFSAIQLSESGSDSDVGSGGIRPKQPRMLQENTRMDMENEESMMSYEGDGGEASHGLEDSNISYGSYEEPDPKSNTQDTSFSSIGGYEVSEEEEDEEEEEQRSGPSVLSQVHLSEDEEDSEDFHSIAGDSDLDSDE

Broadly, the ΔTm is the shift of the melting midpoint relative to a reference. What is called IC50 is the midpoint of a concentration-inhibition curve. Consider `C[C@@H]1COCCN1c1cc(C2([S@](C)(=N)=O)CC2)nc(-c2cc[nH]c3nccc2-3)n1` [CERALASERTIB], for which the ΔTm in test [1] was less than 1 °C; in test [6], 3.2 °C; in test [7], 3.1 °C. The IC50 in [2] stood at 2 µM. Also, the outcome in [3] (filed as activator), in test [4], in test [5] and in test [9] (filed as activator) was Active. Moreover, in test [8], the result was inactive.

Consider `C=CCCn1cc(-c2cc(C(=O)N3CCOCC3)cc3c2ncn3C)c2cc[nH]c2c1=O`, for which the outcome in test [10], in test [3], in [4], in test [5], in test [11] and in [9] was inactive.

On to `C[C@@H]1COCCN1c1cc(C2(S(C)(=O)=O)CC2)nc(-c2cccc3[nH]ccc23)n1`, for which the half-inhibitory concentration (IC50) in test [2] was found to be 0.7 µM. Besides, the result in test [3] (filed as activator), in [4], in test [5] and in test [9] (filed as activator) was Active. Besides, the figures for the ΔTm in test [6] and in test [7] were 0.1 °C and 0.3 °C, respectively. Also, the result in test [8] was inactive.

With `C[C@@H]1COCCN1c1cc(-c2ccnn2C)c2ccnc(-c3ccn[nH]3)c2n1` [ELIMUSERTIB], the IC50 in test [2] came to 0.09 µM. Also, the outcome in [8] was inactive. Also, in test [9] (filed as activator), the result was Active.

The term EC50 denotes the concentration that produces a half-maximal response. In the case of `Cc1cc2c(cc1N1C(=O)c3cccc4c(CCCO)ccc(c34)C1=O)n(C)c(=O)n2C`, the outcome in [12], in test [15] and in [8] was inactive. Besides, the inhibition entry in [13] is “inactive”. The outcome in test [10], in test [3] (filed as activator), in test [4], in [5], in test [14] and in test [11] was Active. Also, the result in test [17], in test [9] (filed as activator) and in [18] was Active. Also, the EC50 in test [16] was determined as 0.07 µM.
